Experiment [1] deals with c-MYC. Put plainly: Immunohistochemistry of TMD8 xenograft tumor samples. The settings on record: PI3Kδ inhibitor 5 mg/kg, Compound B 10 mg/kg; data not shown. Type of experiment: in vivo, mice. As for the experimental part: (§1) Paraffin sections of the tumor samples were prepared for immunohistochemistry. Slides were prepared with EZ Prep (Ventana Medical Systems) CC1 (Ventana Medical Systems) and rinsed with Reaction Buffer (Ventana Medical Systems). Slides were incubated with ChromoMap Inhibitor (Venatana Medical Systems) and rinsed a Reaction Buffer rinse before incubating with anti-pS6 (S235/236) rabbit monoclonal antibody (Cell Signaling Technology) at 0.02 ug/mL or anti-c-MYC rabbit monoclonal antibody (Abcam Inc.) at 0.3 ug/mL. After 1 hour at room temperature, the slides were incubated sequentially with Anti-Rabbit HQ (Ventana Medical Systems), Anti-HQ HRP (Ventana Medical Systems) hydrogen peroxide CM (Ventana Medical Systems), Copper CM (Ventana Medical Systems), and Hematoxylin II. Slides were imaged using the Leica AT2 digital slide scanner (Leica Microsystems Inc.) and documented in Digital Image Hub (DIH-SlidePath).

Experiment [2] deals with p-S6 S235/236. The experiment is described as above. In kind it is in vivo, mice. The settings on record: PI3Kδ inhibitor 5 mg/kg, Compound B 10 mg/kg; data not shown. As for the experimental part:
as §1

Experiment [3] has as its system SU-DHL-6 cells. Put plainly: ATPLite anti-proliferation assay (GI) and synergy score, 120 h. In kind it is cell-based. As for the experimental part:
(§2) The endpoint readout of the anti-proliferation assay was based upon quantitation of ATP as an indicator of viable cells. Cells were thawed from a liquid nitrogen preserved state. Once cells had been expanded and divided at their expected doubling times, screening began. Cells were seeded in growth media in black 384-well tissue culture treated plates at 500 cells per well (except where noted in Analyzer). Cells were equilibrated in assay plates via centrifugation and placed in incubators attached to the Dosing Modules at 37° C. for twenty-four hours before treatment. […] These Tzero (T0) plates were read using ultra-sensitive luminescence on Envision Plate Readers. Treated assay plates were incubated with the compound for one hundred twenty hours. After one hundred twenty hours, plates were developed for endpoint analysis using ATPLite. All data points were collected via automated processes; quality controlled; and analyzed using Horizon CombinatoRx proprietary software. Assay plates were accepted if they pass the following quality control standards: relative luciferase values were consistent throughout the entire experiment, Z-factor scores were greater than 0.6, untreated/vehicle controls behaved consistently on the plate.
(§3) Horizon Discovery utilized Growth Inhibition (GI) as a measure of cell viability. The cell viability of vehicle was measured at the time of dosing (T0) and after one hundred twenty hours (T120). A GI reading of 0% represented no growth inhibition—cells treated with compound and T120 vehicle signals were matched. […] A GI 200% represents complete death of all cells in the culture well. Compounds reaching an activity plateau of GI 200% were considered cytotoxic. Horizon CombinatoRx calculates GI by applying the following test and equation: […]
(§4) To measure combination effects in excess of Loewe additivity, Horizon Discovery has devised a scalar measure to characterize the strength of synergistic interaction termed the Synergy Score. The Synergy Score was calculated as:
(§5) Synergy Score=log fx log fyΣmax(0,Idata)(Idata−ILoewe)
(§6) The fractional inhibition for each component agent and combination point in the matrix was calculated relative to the median of all vehicle-treated control wells. The Synergy Score equation integrated the experimentally-observed activity volume at each point in the matrix in excess of a model surface numerically derived from the activity of the component agents using the Loewe model for additivity. Additional terms in the Synergy Score equation (above) were used to normalize for various dilution factors used for individual agents and to allow for comparison of synergy scores across an entire experiment. The inclusion of positive inhibition gating or an Idata multiplier removed noise near the zero effect level, and biased results for synergistic interactions at that occur at high activity levels.
(§7) The cell viability of vehicle was measured at the time of dosing (T0) and after 120 h (T120). […] To measure combination effects, excess of Loewe additivity was used to characterize the strength of synergistic interaction, termed the synergy score. The assay and synergy score analysis were performed in accordance with the protocol set forth in Example 1B above.
(§8) The assay and synergy score analysis were performed in accordance with the protocol set forth in Example 3A above.
For orientation: In ATP-based viability assays light output follows the ATP content of the culture.

Experiment [4] deals with TMD-8 cells. The description is as above. Type of experiment: cell-based. As for the experimental part: as §2, §3, §4, §5, §6, §7, §8
The subject of experiment [5] is OCI-Ly3 cells. The experiment is described as above. Type of experiment: cell-based. As for the experimental part: as §2, §3, §4, §5, §6, §7, §8
Experiment [6] has as its system HBL-1 cells. Described as above. In kind it is cell-based. Here is the method: as §2, §3, §4, §5, §6, §7, §8
The test system of experiment [7] is U2932 cells. The description is as above. Type of experiment: cell-based. Here is the method: as §2, §3, §4, §5, §6, §7, §8
In experiment [8] the test system is OCI-Ly4 cells. The description is as above. In kind it is cell-based. Here is the method: as §2, §3, §4, §5, §6, §7, §8
For experiment [9], the system named is U2973 cells. Described as above. In kind it is cell-based. Here is the method: as §2, §3, §4, §5, §6, §7, §8
The test system of experiment [10] is SU-DHL-10 cells. Described as above. In kind it is cell-based. As for the experimental part:
as §2, §3, §4, §5, §6, §7, §8

Experiment [11] has as its system Ri-1 cells. The description is as above. In kind it is cell-based. Here is the method: as §2, §3, §4, §5, §6, §7, §8
Experiment [12] relates to SU-DHL-2 cells. Described as above. In kind it is cell-based. Here is the method:
as §2, §3, §4, §5, §6, §7, §8

Experiment [13] has as its system TMD8^R cells. The experiment can be described thus: Apoptosis, Annexin V assay and propidium iodide by flow cytometry. Type of experiment: cell-based. The following applies: Annexin V at 48 h, Idelalisib=1 μM. Here is the method:
(§9) Growth inhibition to Idelalisib or other inhibitors was assessed using CellTiter-Glo viability assay at 96 h. […] Cell lines were analyzed by whole exome sequencing, RNASeq, and phosphoproteomics. Protein expression was measured using Simple Western and SDS/PAGE and western blot. Caspase 3/7 was measured using Caspase-Glo 3/7 assay; apoptosis was measured with Annexin V assay and propidium iodide by flow cytometry.
(In general: In flow cytometry, cells or beads pass a laser one at a time.)

Experiment [14] concerns TMD8^R (Idelalisib-resistant line). The experiment can be described thus: CellTiter-Glo viability assay at 96 h. Type of experiment: cell-based. The following applies: TMD8^R. Here is the method:
as §9
Cell viability EC50 was determined using a sigmoidal dose-response (variable slope) curve generated from quadruplicate samples. Statistical significance was determined using the student's t-test for cell viability and two-tailed paired t-test for apoptosis experiments in Prism (GraphPad).
Idelalisib-resistant (TMD8^R) cell line and passage-matched Idelalisib-sensitive (TMD8^S) cell line were generated according to the procedure described in Example 5 above. To characterize the resistant cells, cell viability assays, RNASeq of multidrug resistance (MDR) family of ABC transporter genes (N=33), apoptosis assays, and phosphoprotein analysis were performed. Cell viability was measured using CellTiter-Glo, as described in Example 1A above. Western blot and protein level analysis were performed after treatment with 420 nM idelalisib, 320 nM Compound B and combination thereof, using Peggy Sue (ProteinSimple) automated Western Blot system. Protein concentration (pg/μL) was quantitated using recombinant protein standards. Normalized AUC were determined for each of the treatment groups, normalized to actin. Apoptosis was assessed by propidium iodide and Annexin V/FITC staining and measured by flow cytometry, as described in Example 1A above. Western Blot with anti-p-AKT (S473) antibody and Peggy Sue were used to determine the phosphorylation state of downstream signaling components.

SMILES strings stand for the structures.

With `CC#CC(=O)N1CC[C@@H](n2c(=O)n(-c3ccc(Oc4ccccc4)cc3)c3c(N)ncnc32)C1` [Compound B, 6-amino-9-[(3R)-1-(2-butynoyl)-3-pyrrolidinyl]-7-(4-phenoxyphenyl)-7,9-dihydro-8H-purin-8-one], the “c-MYC signal, IHC” value in experiment [1] is “did not reduce”. Also, the “p-S6 signal, IHC” value in experiment [2] was “did not reduce”. For the same molecule, the “Max. Effect (% GI)” value in [3] was 24 % GI; in experiment [4], 98 % GI; in experiment [5], 0 % GI; in experiment [6] it was 65 % GI; in experiment [7], 81 % GI; in experiment [8], 25 % GI. The “Max. Effect (% GI)” value in [9] turned out to be 14 % GI; in experiment [10], 0 % GI; in [11], 48 % GI; in experiment [12], 18 % GI.

In general, inhibition refers to the percentage by which the read-out fell short of the control. As usually defined, the EC50 is the midpoint of the concentration-response curve. `CCC(Nc1ncnc2[nH]cnc12)c1nc2cccc(F)c2c(=O)n1-c1ccccc1` (centres unmarked) [Idelalisib, 2-(1-((9H-Purin-6-yl)amino)propyl)-5-fluoro-3-phenylquinazolin-4(3H)-one]: the apoptosis turned out to be 24% in experiment [13] (GSK-2334470=1 μM, vehicle control 22%) and 21% in experiment [13] (MK-2206=1 μM, vehicle control 24%). Further, the “Max. Effect (% GI)” value in [3] is recorded as 110 % GI; in experiment [4], 155 % GI; in experiment [5], 20 % GI; in experiment [6], 29 % GI; in experiment [7] it was 61 % GI; in experiment [8] it was 194 % GI. Besides, the “Max. Effect (% GI)” value was 85 % GI in [9], 0 % GI in experiment [10], 78 % GI in experiment [11] and 8 % GI in [12]. In addition, the inhibition at 1 µM in experiment [14] (at 1 μM, read-out: Growth inhibition) is 19%. Besides, the EC50 in experiment [14] (single agent, read-out: EC50, cell viability) is above 10 µM.

Values taken from US20180353512A1, “COMBINATION THERAPIES FOR TREATING B-CELL MALIGNANCIES” (GILEAD SCIENCES, INC., priority 2015, published 2018).
